According to patent US20220125051A1, “PRE-HARVEST DESICCATION METHOD” (SYNGENTA CROP PROTECTION AG, priority 2019, published 2022):
Where two headings read alike, the source gives them in different places.

Assays:
Assay in all cases: Post-emergence efficacy, Method A
Type in all cases: in vivo
Lolium perenne (LOLPE) = details: Lolium perenne, post-emergence, 312 h, evaluated after 13 days
Procedure: (§1) Seeds of a variety of test species were sown in standard soil in pots. After cultivation for 14 days (post-emergence) under controlled conditions in a glasshouse (at 24/16° C., day/night; 14 hours light; 65% humidity), the plants were sprayed with an aqueous spray solution derived from the dissolution of the technical active ingredient formula (I) in a small amount of acetone and a special solvent and emulsifier mixture referred to as IF50 (11.12% Emulsogen EL360 TM+44.44% N-methylpyrrolidone+44.44% Dowanol DPM glycol ether), to create a 50 g/I solution which was then diluted to required concentration using 0.25% or 1% Empicol ESC70 (Sodium lauryl ether sulphate)+1% ammonium sulphate as diluent. The test plants were then grown in a glasshouse under controlled conditions (at 24/16° C., day/night; 14 hours light; 65% humidity) and watered twice daily. After 13 days the test was evaluated (100=total damage to plant; 0=no damage to plant).
(§2) Ipomoea hederacea (IPOHE), Euphorbia heterophylla (EPHHL), Chenopodium album (CHEAL), Amaranthus palmeri (AMAPA), Lolium perenne (LOLPE), Digitaria sanguinalis (DIGSA), Eleusine indica (ELEIN), Echinochloa crus-galli (ECHCG), Setaria faberi (SETFA)

[1] = system: Amaranthus palmeri (AMAPA); details: Amaranthus palmeri, post-emergence, 312 h; Application Rate 500 g/Ha; evaluated after 13 days; Method A; read-out: Control of weed species after post-emergence application, AMAPA (100=total damage to plant; 0=no damage to plant)
Procedure: as §1, §2

[2] = system: Echinochloa crus-galli (ECHCG); details: Echinochloa crus-galli, post-emergence, 312 h, evaluated after 13 days
Procedure: as §1, §2

Eleusine indica (ELEIN) = details: Eleusine indica, post-emergence, 312 h, evaluated after 13 days
Procedure: as §1, §2

Setaria faberi (SETFA) = details: Setaria faberi, post-emergence, 312 h, evaluated after 13 days
Procedure: as §1, §2

[3] = system: Euphorbia heterophylla (EPHHL); details: Euphorbia heterophylla, post-emergence, 312 h, evaluated after 13 days
Procedure: as §1, §2

[4] = system: Ipomoea hederacea (IPOHE); details: Ipomoea hederacea, post-emergence, 312 h, evaluated after 13 days
Procedure: as §1, §2

[5] = system: Digitaria sanguinalis (DIGSA); details: Digitaria sanguinalis, post-emergence, 312 h, evaluated after 13 days
Procedure: as §1, §2

[6] = system: Chenopodium album (CHEAL); details: Chenopodium album, post-emergence, 312 h, evaluated after 13 days
Procedure: as §1, §2

[7] = Application Rate 500 g/Ha, Method A, read-out: Control of weed species after post-emergence application, LOLPE (100=total damage to plant; 0=no damage to plant)
[8] = Application Rate 500 g/Ha, Method A, read-out: Control of weed species after post-emergence application, ECHCG (100=total damage to plant; 0=no damage to plant)
[9] = Application Rate 500 g/Ha, Method A, read-out: Control of weed species after post-emergence application, ELEIN (100=total damage to plant; 0=no damage to plant)
[10] = Application Rate 500 g/Ha, Method A, read-out: Control of weed species after post-emergence application, EPHHL (100=total damage to plant; 0=no damage to plant)
[11] = Application Rate 500 g/Ha, Method A, read-out: Control of weed species after post-emergence application, IPOHE (100=total damage to plant; 0=no damage to plant)
[12] = Application Rate 500 g/Ha, Method A, read-out: Control of weed species after post-emergence application, DIGSA (100=total damage to plant; 0=no damage to plant)
[13] = Application Rate 500 g/Ha, Method A, read-out: Control of weed species after post-emergence application, CHEAL (100=total damage to plant; 0=no damage to plant)
[14] = Application rate 500 g/Ha, 100=total damage to plant, 0=no damage to plant, read-out: Control of weed species after post-emergence application, LOLPE
[15] = Application rate 500 g/Ha, 100=total damage to plant, 0=no damage to plant, read-out: Control of weed species after post-emergence application, ECHCG
[16] = Application rate 500 g/Ha, 100=total damage to plant, 0=no damage to plant, read-out: Control of weed species after post-emergence application, ELEIN
[17] = Application rate 500 g/Ha, 100=total damage to plant, 0=no damage to plant, read-out: Control of weed species after post-emergence application, SETFA
[18] = Application rate 500 g/Ha, 100=total damage to plant, 0=no damage to plant, read-out: Control of weed species after post-emergence application, EPHHL
[19] = Application rate 500 g/Ha, 100=total damage to plant, 0=no damage to plant, read-out: Control of weed species after post-emergence application, IPOHE
[20] = Application rate 500 g/Ha, 100=total damage to plant, 0=no damage to plant, read-out: Control of weed species after post-emergence application, DIGSA
[21] = Application rate 500 g/Ha, 100=total damage to plant, 0=no damage to plant, read-out: Control of weed species after post-emergence application, CHEAL

| SMILES | pest or weed control at 500 g/ha (Lolium perenne (LOLPE); [7]) | pest or weed control at 500 g/ha [1] | pest or weed control at 500 g/ha [2, 8] | pest or weed control at 500 g/ha (Eleusine indica (ELEIN); [9]) | pest or weed control at 500 g/ha (Setaria faberi (SETFA); Application Rate 500 g/Ha, Method A, read-out: Control of weed species after post-emergence application, SETFA (100=total damage to plant; 0=no damage to plant)) | pest or weed control at 500 g/ha [3, 10] | pest or weed control at 500 g/ha [4, 11] | pest or weed control at 500 g/ha [5, 12] | pest or weed control at 500 g/ha [6, 13] | pest or weed control at 500 g/ha (Lolium perenne (LOLPE); [14]) | pest or weed control at 500 g/ha [2, 15] | pest or weed control at 500 g/ha (Eleusine indica (ELEIN); [16]) | pest or weed control at 500 g/ha (Setaria faberi (SETFA); [17]) | pest or weed control at 500 g/ha [3, 18] | pest or weed control at 500 g/ha [4, 19] | pest or weed control at 500 g/ha [5, 20] | pest or weed control at 500 g/ha [6, 21] |
| --- | --- | --- | --- | --- | --- | --- | --- | --- | --- | --- | --- | --- | --- | --- | --- | --- | --- |
| CC(CC(=O)O)[n+]1ccc(-c2ccncn2)cn1 (stereo not drawn) [Compound A172] | 20% | 30% | 50% | 70% | 50% | 50% | 40% | 80% | 60% |  |  |  |  |  |  |  |  |
| O=S(=O)([O-])CCC[n+]1ccc(-c2ccnc(Cl)n2)cn1 [Compound A53] |  |  |  |  |  |  |  |  |  | 40% | 70% | 70% | 80% | 80% | 70% | 80% | 100% |
| O=S(=O)([O-])CC[n+]1ccc(-c2nccc(C(F)(F)F)n2)cn1 [Compound A23] |  |  |  |  |  |  |  |  |  | 70% | 70% | 100% | 100% | 90% | 60% | 80% | 80% |
| O=C([O-])CC[n+]1ccc(-c2ncc(C3CC3)cn2)cn1 [Compound A51] |  |  |  |  |  |  |  |  |  | 60% | 60% | 90% | 70% | 30% | 20% | 90% | 70% |
| COc1nccc(-c2cc[n+](CCS(=O)(=O)[O-])nc2)n1 [Compound A60] |  |  |  |  |  |  |  |  |  | 70% | 90% | 100% | 90% | 70% | 60% | 100% | 100% |
| O=C([O-])CC[n+]1ccc(-c2ncc(Cl)cn2)cn1 [Compound A43] |  |  |  |  |  |  |  |  |  | 20% | 70% | 100% | 100% | 80% | 30% | 90% | 90% |
| O=S(=O)([O-])CCC[n+]1ccc(-c2ccc(O)nn2)cn1 [Compound A52] |  |  |  |  |  |  |  |  |  | 10% | 60% | 70% | 70% | 60% | 20% | 70% | 60% |
| Cc1cnc(-c2cc[n+](CCS(=O)(=O)[O-])nc2)cn1 [Compound A61] |  |  |  |  |  |  |  |  |  | 70% | 90% | 100% | 100% | 90% | 50% | 100% | 80% |
| O=c1cc(-c2cc[n+](CCS(=O)(=O)[O-])nc2)nc[nH]1 [Compound A57] |  |  |  |  |  |  |  |  |  | 10% | 40% | 40% | 60% | 60% | 10% | 80% | 60% |
| Nc1cc(-c2cc[n+](CCC(=O)O)nc2)ncn1 [Compound A163] | 70% | 100% | 40% | 90% |  | 50% | 30% | 50% | 60% |  |  |  |  |  |  |  |  |
| Cc1cc(C)nc(-c2cc[n+](CCS(=O)(=O)[O-])nc2)n1 [Compound A48] |  |  |  |  |  |  |  |  |  | 70% | 70% | 100% | 100% | 90% | 20% | 90% | 100% |
| CS(=O)(=O)c1cnc(-c2cc[n+](CCS(=O)(=O)[O-])nc2)nc1 [Compound A15] |  |  |  |  |  |  |  |  |  | 10% | 40% | 80% | 50% | 20% | 10% | 60% | 90% |
| COc1cc(OC)nc(-c2cc[n+](CCS(=O)(=O)[O-])nc2)n1 [Compound A32] |  |  |  |  |  |  |  |  |  | 30% | 70% | 100% | 80% | 70% | 40% | 90% | 70% |
| Cc1nccc(-c2cc[n+](CCC(=O)O)nc2)n1 [Compound A55] |  |  |  |  |  |  |  |  |  | 60% | 90% | 100% | 100% | 70% | 70% | 100% | 80% |
| CN(C)c1ccnc(-c2cc[n+](CCC(=O)[O-])nc2)n1 [Compound A45] |  |  |  |  |  |  |  |  |  | 30% | 90% | 80% | 100% | 50% | 20% | 80% | 60% |
| CN(C)c1cnc(-c2cc[n+](CCS(=O)(=O)[O-])nc2)nc1 [Compound A18] |  |  |  |  |  |  |  |  |  | 10% | 30% | 60% | 40% | 10% | 10% | 50% | 0% |
